Laboratory results published in the supplement of paper PMC5762512.

Legend:
Assay in all cases: IC50 cell viability (Alamar Blue, 96 h)
[1] = test system: PER-891
Procedure: (§1)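 Cells in log-phase growth were seeded in 96-well plates and treated with drug for 96 h at 37°C using 8-point serial dilutions from 0.0025 to 10 µM. Viability was read by Alamar Blue fluorescence after 6 h and normalised to positive and vehicle (DMSO) controls. IC50 values were fitted in ActivityBase; the value given is the mean of two independent experiments.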

[2] = test system: WI-38
Procedure: as §1

[3] = test system: HS-27
Procedure: as §1

[4] = test system: PER-704
Procedure: as §1

[5] = test system: 8645
Procedure: as §1

[6] = test system: 11060
Procedure: as §1

[7] = test system: PER-624
Procedure: as §1

[8] = test system: PER-712
Procedure: as §1

[9] = test system: 10326
Procedure: as §1

[10] = test system: PER-403
Procedure: as §1

[11] = test system: RPMI2650
Procedure: as §1

[12] = test system: CAKI-1
Procedure: as §1

[13] = test system: P896-CL
Procedure: as §1

[14] = test system: TC797
Procedure: as §1

[15] = test system: PER-536
Procedure: as §1

[16] = test system: TY82
Procedure: as §1

[17] = test system: 14169
Procedure: as §1

[18] = test system: PER-535
Procedure: as §1

[19] = test system: HCC2429
Procedure: as §1

[20] = test system: A549
Procedure: as §1

## C/C(=C\c1csc(C)n1)[C@@H]1C[C@@H]2O[C@]2(C)CCC[C@H](C)[C@H](O)[C@@H](C)C(=O)C(C)(C)[C@@H](O)CC(=O)O1 [Epothilone B]
[1]
  IC50 cell viability: 5.01 µM
[2]
  IC50 cell viability: < 0.0025 µM
[3]
  IC50 cell viability: < 2.5 nM
[4]
  IC50 cell viability: 3.8 nM
[5]
  IC50 cell viability: < 2.5 nM
[6]
  IC50 cell viability: < 2.5 nM
[7]
  IC50 cell viability: < 2.5 nM
[8]
  IC50 cell viability: < 2.5 nM
[9]
  IC50 cell viability: < 2.5 nM
[10]
  IC50 cell viability: < 2.5 nM
[11]
  IC50 cell viability: > 10 µM
[12]
  IC50 cell viability: 0.0163 µM
[13]
  IC50 cell viability: 3.22 nM
[14]
  IC50 cell viability: 3.41 nM
[15]
  IC50 cell viability: 0.00759 µM
[16]
  IC50 cell viability: 9.79 nM
[17]
  IC50 cell viability: < 2.5 nM
[18]
  IC50 cell viability: 3.27 nM
[19]
  IC50 cell viability: < 2.5 nM
[20]
  IC50 cell viability: < 2.5 nM

## CC[C@@]1(O)C(=O)OCc2c1cc1n(c2=O)Cc2cc3c(CN(C)C)c(O)ccc3nc2-1 [Topotecan]
[1]
  IC50 cell viability: 0.728 µM
[2]
  IC50 cell viability: 2.48 µM
[3]
  IC50 cell viability: 4570 nM
[4]
  IC50 cell viability: 312 nM
[5]
  IC50 cell viability: 17.4 nM
[6]
  IC50 cell viability: 14.6 nM
[7]
  IC50 cell viability: 11.7 nM
[8]
  IC50 cell viability: 243 nM
[9]
  IC50 cell viability: 13.3 nM
[10]
  IC50 cell viability: 5.01 nM
[11]
  IC50 cell viability: 0.391 µM
[12]
  IC50 cell viability: 0.622 µM
[13]
  IC50 cell viability: 272 nM
[14]
  IC50 cell viability: 24.3 nM
[15]
  IC50 cell viability: 0.0816 µM
[16]
  IC50 cell viability: 116 nM
[17]
  IC50 cell viability: 17.7 nM
[18]
  IC50 cell viability: 107 nM
[19]
  IC50 cell viability: 17.5 nM
[20]
  IC50 cell viability: 118 nM

## COc1ccccc1S(=O)(=O)Nc1ccc2c(c1)CN(C)C(=O)N2 [PFI-1]
[1]
  IC50 cell viability: 5.22 µM
[2]
  IC50 cell viability: 3.34 µM
[3]
  IC50 cell viability: 2940 nM
[4]
  IC50 cell viability: 2160 nM
[5]
  IC50 cell viability: 751 nM
[6]
  IC50 cell viability: 804 nM
[7]
  IC50 cell viability: 2820 nM
[8]
  IC50 cell viability: 1350 nM
[9]
  IC50 cell viability: 175 nM
[10]
  IC50 cell viability: 623 nM
[11]
  IC50 cell viability: > 10 µM
[12]
  IC50 cell viability: 7.02 µM
[13]
  IC50 cell viability: 2810 nM
[14]
  IC50 cell viability: > 10000 nM
[15]
  IC50 cell viability: 5.98 µM
[16]
  IC50 cell viability: 1580 nM
[17]
  IC50 cell viability: 444 nM
[18]
  IC50 cell viability: 2190 nM
[19]
  IC50 cell viability: 551 nM
[20]
  IC50 cell viability: 287 nM

## CC[C@@]1([C@@H]2O[C@@H]([C@H]3O[C@@](O)(CO)[C@H](C)C[C@@H]3C)C[C@@H]2C)CC[C@H]([C@]2(C)CC[C@]3(C[C@H](O)[C@@H](C)[C@@H]([C@@H](C)[C@@H](OC)[C@H](C)C(=O)O)O3)O2)O1 [Monensin]
[1]
  IC50 cell viability: 5.76 µM
[2]
  IC50 cell viability: 0.055 µM
[3]
  IC50 cell viability: 235 nM
[4]
  IC50 cell viability: 9240 nM
[5]
  IC50 cell viability: 4650 nM
[6]
  IC50 cell viability: 3040 nM
[7]
  IC50 cell viability: 1420 nM
[8]
  IC50 cell viability: 7480 nM
[9]
  IC50 cell viability: 817 nM
[10]
  IC50 cell viability: 5580 nM
[11]
  IC50 cell viability: > 10 µM
[12]
  IC50 cell viability: > 10 µM
[13]
  IC50 cell viability: 6830 nM
[14]
  IC50 cell viability: 4080 nM
[15]
  IC50 cell viability: > 10 µM
[16]
  IC50 cell viability: 5070 nM
[17]
  IC50 cell viability: 3510 nM
[18]
  IC50 cell viability: > 10000 nM
[19]
  IC50 cell viability: 4880 nM
[20]
  IC50 cell viability: 234 nM

## C#Cc1cccc(Nc2ncnc3cc(OCCOC)c(OCCOC)cc23)c1 [Erlotinib]
[1]
  IC50 cell viability: 7.1 µM
[2]
  IC50 cell viability: 3.12 µM
[3]
  IC50 cell viability: 4470 nM
[4]
  IC50 cell viability: > 10000 nM
[5]
  IC50 cell viability: 1160 nM
[6]
  IC50 cell viability: 8680 nM
[7]
  IC50 cell viability: 3260 nM
[8]
  IC50 cell viability: > 10000 nM
[9]
  IC50 cell viability: > 10000 nM
[10]
  IC50 cell viability: 8770 nM
[11]
  IC50 cell viability: > 10 µM
[12]
  IC50 cell viability: > 10 µM
[13]
  IC50 cell viability: 2580 nM
[14]
  IC50 cell viability: > 10000 nM
[15]
  IC50 cell viability: > 10 µM
[16]
  IC50 cell viability: > 10000 nM
[17]
  IC50 cell viability: > 10000 nM
[18]
  IC50 cell viability: > 10000 nM
[19]
  IC50 cell viability: > 10000 nM
[20]
  IC50 cell viability: 2740 nM

## CCN(CCCOc1ccc2c(Nc3cc(CC(=O)Nc4cccc(F)c4)[nH]n3)ncnc2c1)CCOP(=O)(O)O [Barasertib]
[1]
  IC50 cell viability: > 10 µM
[2]
  IC50 cell viability: 6.91 µM
[3]
  IC50 cell viability: 1900 nM
[4]
  IC50 cell viability: > 10000 nM
[5]
  IC50 cell viability: 986 nM
[6]
  IC50 cell viability: 37.6 nM
[7]
  IC50 cell viability: > 10000 nM
[8]
  IC50 cell viability: > 10000 nM
[9]
  IC50 cell viability: 11.7 nM
[10]
  IC50 cell viability: 19.4 nM
[11]
  IC50 cell viability: > 10 µM
[12]
  IC50 cell viability: > 10 µM
[13]
  IC50 cell viability: 5010 nM
[14]
  IC50 cell viability: > 10000 nM
[15]
  IC50 cell viability: > 10 µM
[16]
  IC50 cell viability: > 10000 nM
[17]
  IC50 cell viability: 7.07 nM
[18]
  IC50 cell viability: > 10000 nM
[19]
  IC50 cell viability: 20.9 nM
[20]
  IC50 cell viability: 203 nM

## Nc1ccn([C@@H]2O[C@H](CO)[C@@H](O)C2(F)F)c(=O)n1 [Gemcitabine]
[1]
  IC50 cell viability: 0.568 µM
[2]
  IC50 cell viability: 0.341 µM
[3]
  IC50 cell viability: 137 nM
[4]
  IC50 cell viability: 36.2 nM
[5]
  IC50 cell viability: 12.4 nM
[6]
  IC50 cell viability: 9.77 nM
[7]
  IC50 cell viability: 6.22 nM
[8]
  IC50 cell viability: 49.2 nM
[9]
  IC50 cell viability: 14.7 nM
[10]
  IC50 cell viability: 4.92 nM
[11]
  IC50 cell viability: 3.33 µM
[12]
  IC50 cell viability: 0.135 µM
[13]
  IC50 cell viability: 29.6 nM
[14]
  IC50 cell viability: 16.6 nM
[15]
  IC50 cell viability: 0.00538 µM
[16]
  IC50 cell viability: 77.5 nM
[17]
  IC50 cell viability: 6.73 nM
[18]
  IC50 cell viability: 5.26 nM
[19]
  IC50 cell viability: 7.62 nM
[20]
  IC50 cell viability: 9.64 nM

## COc1cc2ncnc(Nc3ccc(F)c(Cl)c3)c2cc1OCCCN1CCOCC1 [Gefitinib]
[1]
  IC50 cell viability: 6.54 µM
[2]
  IC50 cell viability: 5.19 µM
[3]
  IC50 cell viability: 7850 nM
[4]
  IC50 cell viability: > 10000 nM
[6]
  IC50 cell viability: 5370 nM
[7]
  IC50 cell viability: 2210 nM
[8]
  IC50 cell viability: > 10000 nM
[9]
  IC50 cell viability: 5890 nM
[10]
  IC50 cell viability: > 10000 nM
[11]
  IC50 cell viability: > 10 µM
[12]
  IC50 cell viability: > 10 µM
[13]
  IC50 cell viability: 1450 nM
[14]
  IC50 cell viability: > 10000 nM
[15]
  IC50 cell viability: > 10 µM
[16]
  IC50 cell viability: > 10000 nM
[17]
  IC50 cell viability: 6050 nM
[18]
  IC50 cell viability: > 10000 nM
[19]
  IC50 cell viability: > 10000 nM
[20]
  IC50 cell viability: 2740 nM
